Counter-ions that a name gives are not always drawn.
system: not given; test: not given; details: not given

Compared with C[C@H](O)Cn1c(=O)c(Oc2ccc(F)cc2F)cc2cnc(N[C@@H](C)CO)nc21 (as salt: hydrochloride) [Compound 16, 6-(2,4-Difluoro-phenoxy)-2-((S)-2-hydroxy-1-methyl-ethylamino)-8-((S)-2-hydroxy-propyl)-8H-pyrido[2,3-d]pyrimidin-7-one], C[C@@H](O)Cn1c(=O)c(Oc2ccc(F)cc2F)cc2cnc(N[C@@H](C)CO)nc21 (as salt: hydrochloride) [Compound 41, 6-(2,4-Difluoro-phenoxy)-2-((S)-2-hydroxy-1-methyl-ethylamino)-8-((R)-2-hydroxy-propyl)-8H-pyrido[2,3-d]pyrimidin-7-one] is higher in melting point: 175.1 to 179.1 °C for the first, 186 to 189.1 °C for the second.

CC(=O)Cn1c(=O)c(Oc2ccc(F)cc2F)cc2cnc(N[C@@H](C)CO)nc21 (as salt: hydrochloride) [Compound 45, 6-(2,4-Difluoro-phenoxy)-2-((S)-2-hydroxy-1-methyl-ethylamino)-8-(2-oxo-propyl)-8H-pyrido[2,3-d]pyrimidin-7-one] and CC(=O)Cn1c(=O)c(Oc2ccc(F)cc2F)cc2cnc(N[C@H](C)CO)nc21 (as salt: hydrochloride) [Compound 46, 6-(2,4-Difluoro-phenoxy)-2-((R)-2-hydroxy-1-methyl-ethylamino)-8-(2-oxo-propyl)-8H-pyrido[2,3-d]pyrimidin-7-one] cannot be ordered by melting point: 207.9 to 214.6 °C for the first, 207.8 to 216.4 °C for the second.

First: C[C@@H](O)Cn1c(=O)c(Oc2ccc(F)cc2F)cc2cnc(NC(C)(C)CO)nc21 (as salt: hydrochloride) [Compound 31, 6-(2,4-Difluoro-phenoxy)-2-(2-hydroxy-1,1-dimethyl-ethylamino)-8-((R)-2-hydroxy-propyl)-8H-pyrido[2,3-d]pyrimidin-7-one]
Second: C[C@H](O)Cn1c(=O)c(Oc2ccc(F)cc2F)cc2cnc(NC(C)(C)CO)nc21 (as salt: hydrochloride) [Compound 36, 6-(2,4-Difluoro-phenoxy)-2-(2-hydroxy-1,1-dimethyl-ethylamino)-8-((S)-2-hydroxy-propyl)-8H-pyrido[2,3-d]pyrimidin-7-one]
The melting point of the first is lower: 182 to 183.9 °C for the first, 187.4 to 189.9 °C for the second.

Compared with C[C@H](O)Cn1c(=O)c(Oc2ccc(F)cc2F)cc2cnc(N[C@H](C)CO)nc21 (as salt: hydrochloride) [Compound 17, 6-(2,4-Difluoro-phenoxy)-2-((R)-2-hydroxy-1-methyl-ethylamino)-8-((S)-2-hydroxy-propyl)-8H-pyrido[2,3-d]pyrimidin-7-one], C[C@H](CO)Nc1ncc2cc(Oc3ccc(F)cc3F)c(=O)n(C[C@@H](C)O)c2n1 (as salt: hydrochloride) [Compound 42, 6-(2,4-Difluoro-phenoxy)-2-((R)-2-hydroxy-1-methyl-ethylamino)-8-((R)-2-hydroxy-propyl)-8H-pyrido[2,3-d]pyrimidin-7-one] is higher in melting point: 174.9 to 178.1 °C for the first, 181.5 to 184.4 °C for the second.

system: LPS-induced IL-1β production in undiluted human whole blood; test: human whole blood (HWB) in vitro assay, IL-1β ELISA; assay type: cell-based; details: 0.5 μg/mL LPS, 18 hours, 30 min pre-incubation
Method: LPS (lipopolysaccharide) treatment of human whole blood induces IL-1β (Interleukin-1β) production that can be measured by an IL-1β specific ELISA. Human whole blood was pre-incubated with the indicated concentrations of a compound of the present invention in 0.5% DMSO (final concentration) for 30 min at 37° C. Samples were stimulated with 0.5 μg/mL of lipopolysaccharide (LPS, from Sigma) (final concentration) for 18 hours to induce the synthesis and secretion of IL-1β which was measured using an IL-1β ELISA.
A stock solution of 6 mM in DMSO (from Sigma) was prepared by dissolving the compound in DMSO in 449 μL of DMSO. From the 6 mM stock solution, six subsequent half-log serial dilutions in DMSO were performed to give the following concentrations: 1.9 mM, 600, 190, 60, 19, and 6 μM. […] 216 μL DMSO was placed in each of tubes 2-7.
Reconstitution of LPS: in the 10 mg. vial of LPS, 10 mL 1× Phosphate-Buffered Saline (i.e., 1×PBS, from Gibco-BRL) was added, mixed well and transferred to a 50 mL tube. Another 10 mL was added to the LPS vial, followed by rinsing, and this rinse was added to the 50 mL tube and mixed will. The solution was filtered and sterilized, and aliquotted in desired amounts (100 μL aliquot was sufficient for 4 plates). This yielded a 0.5 mg/mL stock which was diluted 1/100 for use in protocol. Just prior to use, the LPS stock was diluted 1/100 (100 μL in 10 mL of RPMI) […]

C[C@@H](O)Cn1c(=O)c(Oc2ccc(F)cc2F)cc2cnc(NC3CCOCC3)nc21 [Compound 20, 6-(2,4-Difluoro-phenoxy)-8-((R)-2-hydroxy-propyl)-2-(tetrahydro-pyran-4-ylamino)-8H-pyrido[2,3-d]pyrimidin-7-one] showed an IC50 of 1 nM.

— US7750016B2, “Hydroxyalkyl substituted pyrido-7-pyrimidin-7-ones” (Roche Palo Alto LLC, priority 2003, dated 2010)
